Several values for one entry are separate records, joined by “and”; a condition that tells them apart may be missing. Equal entries are not always repeated.
Tests used:
CB1 [1] = target: T1, CB1 (Homo sapiens, UniProt P21554); settings: at 100,000 nM; reported by Lilly; cited from earlier work
rat CB2 receptor [2] = target: T2, rat CB2 receptor (Rattus norvegicus, UniProt Q9QZN9); assay: β-arrestin recruitment assay (PathHunter CHO-K1); type: cell-based; set-up: host or cells: PathHunter CHO-K1; settings: for β-arrestin efficacy compared to CP55,940, rat CB2: relative to CP55,940
T2 sequence (Q9QZN9 1-360): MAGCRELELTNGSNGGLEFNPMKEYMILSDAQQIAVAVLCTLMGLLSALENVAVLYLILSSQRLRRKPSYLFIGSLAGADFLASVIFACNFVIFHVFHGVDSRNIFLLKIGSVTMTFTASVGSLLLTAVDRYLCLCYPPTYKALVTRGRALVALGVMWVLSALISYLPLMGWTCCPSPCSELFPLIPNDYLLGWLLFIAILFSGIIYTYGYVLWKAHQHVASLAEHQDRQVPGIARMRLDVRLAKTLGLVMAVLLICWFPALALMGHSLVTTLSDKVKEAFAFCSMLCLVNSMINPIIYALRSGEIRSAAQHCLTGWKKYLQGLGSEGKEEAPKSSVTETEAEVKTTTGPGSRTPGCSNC

hCB2 [3] = target: T3, hCB2 (Homo sapiens, UniProt P34972); settings: reported by Lilly; cited from earlier work
mouse CB1 receptor = mouse CB1 receptor (Mus musculus, UniProt P47746); assay: β-arrestin recruitment assay (PathHunter CHO-K1); type: cell-based
mouse CB2 receptor = target: T4, mouse CB2 receptor (Mus musculus, UniProt P47936); assay: β-arrestin recruitment assay (PathHunter CHO-K1); type: cell-based; settings: for β-arrestin efficacy, mouse CB2: relative to reference agonist
T4 construct: host or cells: PathHunter CHO-K1

hCB2 [4] = target: T3, hCB2; assay: β-arrestin recruitment assay (PathHunter CHO-K1); type: cell-based; set-up: host or cells: PathHunter CHO-K1; settings: for β-arrestin efficacy compared to CP55,940, human CB2: relative to CP55,940
hCB2 [5] = target: T3, hCB2; assay: CB2 receptor internalization assay (enzyme complementation); type: cell-based; settings: for receptor internalization, human CB2 (words): relative to CP55,940
Method: (§1) Receptor internalization assays for the CB2 receptor were performed using the PathHunter® Total GPCR Internalization system from DiscoverRx (Fremont, Calif.). The assay was performed in CB2-receptor-expressing stable cell lines generated in the PathHunter® U2OS parental cell line.
(§2) Total GPCR internalization assays were performed per the manufacturer's instructions. Briefly, PathHunter® U2OS cells stably expressing the recombinant human or rat CB2 receptor were seeded into 96-well microtiter assay plates (Catalog #3610, Corning Inc., Corning, N.Y.) at a density of 20,000 cells per well in 100 μL growth medium and cultured in a humidified 37° C. incubator overnight. Growth medium was exchanged the following day for 100 μL serum-free medium (OptiMEM), and cells were incubated overnight in a humidified 37° C. incubator. On the day of the assay, test compounds dissolved in DMSO were serially diluted in DMSO and then further diluted in OptiMEM to achieve 11× concentrations in 5.5% DMSO. Aliquots (10 μL) of diluted test compounds were added to the assay plates, which were then incubated in a humidified 37° C. incubator for 3 hours. Lysis/detection reagents (55 μL total) were then added and the plates were incubated for an additional 1 hour at room temperature. Plates were then read on an appropriate plate reader (e.g., EnVision (Perkin Elmer, Waltham, Mass.) or PheraStar (BMG)). Dose-response curves were generated using a minimum of 8 different test concentrations and triplicate determinations were made at each test concentration. Assay performance was monitored by inclusion of a standard CB2 reference agonist such as CP55,940 and agonist internalization efficacies were reported relative to that of the reference agonist.

rat CB2 receptor [6] = target: T2, rat CB2 receptor; assay: as above; type: cell-based; settings: relative to CP55,940
Method: as §1, §2

hCB2 [7] = target: T3, hCB2; settings: reported by Glenmark, cited from earlier work
CB1 [8] = target: T1, CB1; assay: β-arrestin recruitment assay (PathHunter CHO-K1); type: cell-based
[9] = test system: human CB2 receptor versus human CB1 receptor; assay: CB2 receptor selectivity (ratio of EC50 values, β-arrestin data); type: cell-based
Source text: Competition curves were fit to a nonlinear least squares curve fitting program to obtain EC50 values for the β-arrestin data. Selectivity for the CB2 receptor versus the CB1 receptor was obtained by dividing the […].

rat CB1 receptor = rat CB1 receptor (Rattus norvegicus, UniProt P20272); assay: β-arrestin recruitment assay (PathHunter CHO-K1); type: cell-based
CB1 [10] = target: T1, CB1; settings: concentrations less than 30 μM; reported by GSK; cited from earlier work
[11] = test system: MIA-induced osteoarthritis in male Sprague Dawley rats; assay: Osteoarthritis pain model (MIA); type: in vivo, rat; settings: for effect of CB1 antagonist on in vivo efficacy: pain model
Source text: Injection of monosodium iodoacetate (MIA) into a joint (J Rheumatol 14:130-1, 1987) inhibits the activity of glyceraldehyde-3-phosphate dehydrogenase in chondrocytes, resulting in disruption of glycolysis and eventually in cell death. The progressive loss of chondrocytes results in histological and morphological changes of the articular cartilage, closely resembling those seen in osteoarthritis patients.
Osteoarthritis was induced in 200 g male Sprague Dawley rats. After brief anesthesia by isoflurane, rats received a single intra-articular injection of MIA (2 mg) (Catalog #19148, Sigma Aldrich, Saint Louis, Mo.) dissolved in 0.9% sterile saline in a 50 μL volume administered through the patella ligament into the joint space of the left knee with a 30 G needle. Following injection, animals were allowed to recover from anesthesia before being returned to the main housing vivarium.
Typically during disease progression, there is an inflammation period of 0-7 days post-intra-articular injection followed by progressive degeneration of the cartilage and subchondral bone from days 14-55. Efficacy studies with a compound described herein took place from day 14 onwards and were performed twice a week with at least three days of wash-out in between each assay. Three different assays can be used to measure pain. Tactile allodynia can be measured via von Frey assay, hind limb paw weight distribution can be monitored using an incapacitance tester (Columbus Instruments, Columbus, Ohio), and hind limb grip strength can be measured using a grip strength meter (Columbus Instruments, Columbus, Ohio). Briefly, the von Frey assay was performed using the standard up/down method with von Frey filaments. Hind paw weight distribution was determined by placing rats in a chamber so that each hind paw rested on a separate force plate of the incapacitance tester. The force exerted by each hind limb (measured in grams) was averaged over a three second period. Three measurements are taken for each rat, and the change in hind paw weight distribution was calculated. Peak hind limb grip force was conducted by recoding the maximum compressive force exerted on the hind limb mesh gauge set on the grip strength meter. During testing, each rat was restrained and the paw of the injected knee was allowed to grip the mesh. The animal was then pulled in an upward motion until their grip was broken. Each rat was tested three times, with the contralateral paw used as a control.
A baseline was established for animals prior to administration of compounds. The MIA-treated groups of rats were then dosed with either vehicle (PEG400, orally), test compound (at 3 mg/kg, 10 mg/kg, and 30 mg/kg, orally), or morphine (3 mg/kg, subcutaneously). The dosing volume was 500 μL. One hour after dosing, von Frey assay, hind limb weight distribution and/or hind limb grip analysis was performed to measure the efficacy of the test compounds.

mouse CB1 receptor, sequence (P47746 whole entry): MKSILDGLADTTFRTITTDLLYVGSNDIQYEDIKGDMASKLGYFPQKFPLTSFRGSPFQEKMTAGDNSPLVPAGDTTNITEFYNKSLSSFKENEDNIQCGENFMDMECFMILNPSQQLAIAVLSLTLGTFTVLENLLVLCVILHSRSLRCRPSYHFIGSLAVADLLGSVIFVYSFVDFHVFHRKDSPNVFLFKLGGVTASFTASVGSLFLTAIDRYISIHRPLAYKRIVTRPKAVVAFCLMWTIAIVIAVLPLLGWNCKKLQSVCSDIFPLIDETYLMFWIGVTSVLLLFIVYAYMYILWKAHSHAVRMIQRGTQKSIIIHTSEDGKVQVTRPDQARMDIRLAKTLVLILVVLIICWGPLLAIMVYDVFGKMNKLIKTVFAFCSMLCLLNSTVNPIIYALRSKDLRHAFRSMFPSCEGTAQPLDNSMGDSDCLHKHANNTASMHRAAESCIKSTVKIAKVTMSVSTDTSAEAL
rat CB1 receptor, sequence (P20272 whole entry): as the sequence (P47746 whole entry) above, with D95E counted along it
T1 sequence (P21554 whole entry): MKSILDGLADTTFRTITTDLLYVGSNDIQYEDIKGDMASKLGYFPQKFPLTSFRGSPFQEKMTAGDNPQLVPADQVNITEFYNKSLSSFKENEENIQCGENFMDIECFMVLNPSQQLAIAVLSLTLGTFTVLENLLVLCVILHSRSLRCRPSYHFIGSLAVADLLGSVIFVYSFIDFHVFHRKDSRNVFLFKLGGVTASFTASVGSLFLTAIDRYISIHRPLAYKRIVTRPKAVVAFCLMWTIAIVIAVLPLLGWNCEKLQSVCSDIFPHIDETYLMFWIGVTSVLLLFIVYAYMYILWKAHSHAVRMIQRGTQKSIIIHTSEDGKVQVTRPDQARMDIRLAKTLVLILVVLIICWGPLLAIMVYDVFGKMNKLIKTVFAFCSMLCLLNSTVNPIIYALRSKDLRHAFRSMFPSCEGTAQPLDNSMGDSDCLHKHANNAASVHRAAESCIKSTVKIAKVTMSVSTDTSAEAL
T4 sequence (P47936 whole entry): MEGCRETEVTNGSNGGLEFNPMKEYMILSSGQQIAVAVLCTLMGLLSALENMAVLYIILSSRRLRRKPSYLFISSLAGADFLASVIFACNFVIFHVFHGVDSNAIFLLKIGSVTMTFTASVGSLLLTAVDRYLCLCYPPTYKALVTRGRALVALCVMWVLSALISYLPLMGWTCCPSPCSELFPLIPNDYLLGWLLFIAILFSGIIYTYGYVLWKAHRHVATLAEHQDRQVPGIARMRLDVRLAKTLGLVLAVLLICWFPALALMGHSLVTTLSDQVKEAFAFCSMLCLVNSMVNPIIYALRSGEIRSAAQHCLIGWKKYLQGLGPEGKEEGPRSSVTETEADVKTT
T3 sequence (P34972 whole entry): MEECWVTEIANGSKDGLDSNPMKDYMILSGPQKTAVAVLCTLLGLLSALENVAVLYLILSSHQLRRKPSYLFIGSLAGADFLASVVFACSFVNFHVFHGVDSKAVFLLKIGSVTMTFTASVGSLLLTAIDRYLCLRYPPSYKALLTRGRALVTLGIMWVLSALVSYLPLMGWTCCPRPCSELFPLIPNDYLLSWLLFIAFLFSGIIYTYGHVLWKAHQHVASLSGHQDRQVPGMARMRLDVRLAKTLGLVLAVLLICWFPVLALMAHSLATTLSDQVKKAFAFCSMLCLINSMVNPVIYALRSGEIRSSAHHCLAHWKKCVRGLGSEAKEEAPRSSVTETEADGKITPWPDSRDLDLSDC

SMILES | β-arrestin efficacy compared to CP55,940, human CB2 (hCB2 [4]) | receptor internalization, human CB2 (words) (hCB2 [5]) | EC50 (rat CB2 receptor [2]) | β-arrestin efficacy compared to CP55,940, rat CB2 (rat CB2 receptor [2]) | EC50 (mouse CB1 receptor) | EC50 (CB1 [8]) | EC50 (rat CB1 receptor) | EC50 (mouse CB2 receptor) | β-arrestin efficacy, mouse CB2 (mouse CB2 receptor) | EC50 (hCB2 [4]) | also measured
Cc1nc(N2CCN(C)CC2)c2nc(-c3ccccc3Cl)n(C3CCOCC3)c2n1 [LY2828360] | 41% | – | – | – | – | – | – | – | – | – | GTPγS35 stimulation efficacy, hCB1 (CB1 [1]): 15 ± 7% at 100,000 nM; agonist activity in β-arrestin assay, rat CB2 (rat CB2 receptor [2]; compared to CP55,940): absence of agonist activity; GTPγS35 stimulation in vitro efficacy, hCB2 (hCB2 [3]): 87% and 87 ± 2%; IC50 (mouse CB1 receptor; antagonist activity, read-out: β-arrestin potency, mouse CB1 (* indicates antagonist activity)): 1000 nM; IC50 (mouse CB2 receptor; antagonist activity, read-out: β-arrestin potency, mouse CB2 (* indicates antagonist activity)): 56 nM
CC(C)(C)NC(=O)c1nn(-c2ccc(F)cc2F)c2c1C1CCC2C1 (stereo not drawn) [GRC 10693] | 100% | high efficacy | 2 nM | 89% | 750 nM | 384 nM | 290 nM | 0.8 nM | 96% | 1.2 nM | receptor internalization, rat CB2 (rat CB2 receptor [6]): high efficacy; β-arrestin efficacy, mouse CB1 (mouse CB1 receptor; relative to reference agonist): 75%; selectivity compared to the CB1 receptor using cAMP assays (hCB2 [7]): greater than 4700 fold; IC50 (hCB2 [7]; read-out: functional IC50 for the human CB2 receptor): 2.1 nM; β-arrestin efficacy, human CB1 (CB1 [8]; relative to reference agonist): 57%; selectivity for the human CB2 receptor versus the human CB1 receptor [9]: 320 fold; β-arrestin efficacy, rat CB1 (rat CB1 receptor; relative to reference agonist): 57%
O=C(NCC1CCOCC1)c1cnc(Nc2ccc(Cl)cc2Cl)nc1C(F)(F)F [GW842166X] | 99% | weak receptor internalization | 427 nM | 97% | > 10000 nM | > 10000 nM | > 10000 nM | 235 nM | 108% | 840 nM | total granule intensity compared to CP55,940, human CB2 receptor internalization (hCB2 [5]): 53%; receptor internalization, human CB2 (words) (hCB2 [5]; listed as GW842166): weak CB2 receptor internalization; CB1 activity (CB1 [10]): absence of CB1 activity; in vivo efficacy over time in the osteoarthritis pain model ([11]; oral dosing): limited efficacy; effect of CB1 antagonist on in vivo efficacy [11]: blocked by CB1 antagonists; effect of CB1 antagonist on in vivo efficacy ([11]; listed as GW842166): blocked by a CB1 antagonist

— patent US20180252736A1, “CB2 RECEPTOR INTERNALIZATION” (Arena Pharmaceuticals, Inc., priority 2015, published 2018)
